Measured values published in ChEMBL document CHEMBL4422609, “Overview of the Development of Glutaminase Inhibitors: Achievements and Future Directions” (J Med Chem, 2019).
pIC50: −log10 of the molar value.

Legend:
[1] = Inhibition of GAC (unknown origin); design: species or system Homo sapiens
[2] = Inhibition of KGA (unknown origin) using glutamine as substrate preincubated for 20 mins followed by substrate addition and measured after 2 hrs; design: species or system Homo sapiens
[3] = Inhibition of KGA (unknown origin); design: species or system Homo sapiens
NCI-H1650 [4] = assay: Antitumor activity against human NCI-H1650 cells harboring EGFR mutant xenografted in mouse assessed as tumor growth inhibition co-treated with erlotinib relative to control; assay type: functional
RPMI-8226 [5] = assay: Antitumor activity against human RPMI8226 cells xenografted in mouse assessed as tumor growth inhibition at 200 mg/kg, po administered BID relative to control; assay type: functional; conditions: RPMI-8226, po, read-out: TGI
JIMT-1 [6] = assay: Antitumor activity against human JIMT1 cells xenografted in mouse assessed as tumor growth inhibition at 200 mg/kg, po administered BID relative to control; assay type: functional; conditions: JIMT-1, po, read-out: TGI
[7] = Antitumor activity against human CTG-0052 cells xenografted in mouse assessed as tumor growth inhibition at 200 mg/kg, po administered BID relative to control; assay type: functional; conditions: read-out: TGI
NCI-H1650 [8] = assay: Antitumor activity against human NCI-H1650 cells harboring EGFR mutant xenografted in mouse assessed as tumor growth inhibition relative to control; assay type: functional
[9] = Antiproliferative activity against human MDA-MB-231met2 cells; assay type: functional, cell-based
RPMI-8226 [10] = assay: Antitumor activity against human RPMI8226 cells xenografted in mouse assessed as tumor growth inhibition at 200 mg/kg, po administered BID co-treated with pomalidomide relative to control; assay type: functional; conditions: RPMI-8226, po, read-out: TGI
NCI-H2122 [11] = assay: Antitumor activity against human NCI-H2122 cells harboring KRAS mutant xenografted in mouse assessed as tumor growth inhibition relative to control; assay type: functional
NCI-H2122 [12] = assay: Antitumor activity against human NCI-H2122 cells harboring KRAS mutant xenografted in mouse assessed as tumor growth inhibition co-treated with selumetinib relative to control; assay type: functional
JIMT-1 [13] = assay: Antitumor activity against human JIMT1 cells xenografted in mouse assessed as tumor growth inhibition at 200 mg/kg, po administered BID co-treated with paclitaxel relative to control; assay type: functional; conditions: JIMT-1, po, read-out: TGI
[14] = Inhibition of GAC (unknown origin) by fluorescence labeling-based assay; design: species or system Homo sapiens
JIMT-1 [15] = assay: Antitumor activity against human JIMT1 cells xenografted in mouse assessed as tumor growth inhibition at 10 mg/kg, po administered every other day for 5 doses relative to control; assay type: functional; conditions: JIMT-1, po, read-out: TGI
RPMI-8226 [16] = assay: Antitumor activity against human RPMI8226 cells xenografted in mouse assessed as tumor growth inhibition at 1 mg/kg, po administered QD relative to control; assay type: functional; conditions: RPMI-8226, po, read-out: TGI

SMILES: CN(C)c1ccc(C2Nc3ccc4ccccc4c3C3=C2C(=O)CC(C)(C)C3)cc1Br (centres undefined)
- pIC50 [1]: 5.03

SMILES: O=C(Cc1ccccc1)Nc1nnc(CCSCCc2nnc(NC(=O)Cc3ccccc3)s2)s1
- pIC50 [2]: 6.80
- pIC50 [3]: 5.52

SMILES: O=C(Cc1cccc(OC(F)(F)F)c1)Nc1ccc(CCCCc2nnc(NC(=O)Cc3ccccn3)s2)nn1
- TGI (NCI-H1650 [4]): 89%
- inhibition in vivo at 200 mg/kg (RPMI-8226 [5]): 64%
- pIC50 [1]: 7.70
- inhibition in vivo at 200 mg/kg (JIMT-1 [6]): 54%
- inhibition in vivo at 200 mg/kg [7]: 61%
- TGI (NCI-H1650 [8]): 26%
- pIC50 [9]: 6.52 to 8.70
- inhibition in vivo at 200 mg/kg (RPMI-8226 [10]): 97%
- TGI (NCI-H2122 [11]): 46%
- TGI (NCI-H2122 [12]): 78%
- inhibition in vivo at 200 mg/kg (JIMT-1 [13]): 100%

SMILES: CN(C)c1ccc(C2Nc3ccc4ccccc4c3C3=C2C(=O)CC(C)(C)C3)cc1 (centres undefined)
- pIC50 [1]: 4.30

SMILES: CC(C)c1ccc(C2Nc3ccc4ccccc4c3C3=C2C(=O)CC(C)(C)C3)cc1 (centres undefined)
- pIC50 [1]: 4.70

SMILES: CC1(C)CC(=O)C2=C(C1)c1c(ccc3ccccc13)NC2c1ccc(C(C)(C)C)cc1 (centres undefined)
- pIC50 [14]: 5.00

SMILES: CN(C)c1ccc(C2Nc3ccc(C(C)(C)C)cc3C3=C2C(=O)CC(C)(C)C3)cc1Br (centres undefined)
- pIC50 [14]: 5.35

SMILES: CN(C)c1ccc(C2Nc3ccc4cc5ccccc5cc4c3C3=C2C(=O)CC(C)(C)C3)cc1Br (centres undefined)
- pIC50 [14]: 5.82

SMILES: O=C(Cc1ccccc1)Nc1nnc([C@@H]2CCC[C@@H](c3nnc(NC(=O)Cc4ccccc4)s3)C2)s1 (racemic)
- pIC50 [2]: 7.00

SMILES: C#Cc1cccc(Nc2ncnc3cc(OCCOC)c(OCCOC)cc23)c1 [ERLOTINIB]
- TGI (NCI-H1650 [8]): 66%

SMILES: CC(=O)O[C@H]1C(=O)[C@@]2(C)[C@H]([C@H](OC(=O)c3ccccc3)[C@]3(O)C[C@H](OC(=O)[C@H](O)[C@@H](NC(=O)c4ccccc4)c4ccccc4)C(C)=C1C3(C)C)[C@]1(OC(C)=O)CO[C@@H]1C[C@@H]2O [PACLITAXEL]
- inhibition in vivo at 10 mg/kg (JIMT-1 [15]): 73%

SMILES: Nc1cccc2c1C(=O)N(C1CCC(=O)NC1=O)C2=O (centres undefined) [POMALIDOMIDE]
- inhibition in vivo at 1 mg/kg (RPMI-8226 [16]): 46%

SMILES: Cn1cnc2c(F)c(Nc3ccc(Br)cc3Cl)c(C(=O)NOCCO)cc21 [SELUMETINIB]
- TGI (NCI-H2122 [11]): 49%
